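Five compound concentrations were applied to cells in 96-well plates for 48 hours; endpoints were derived by simple linear interpolation of the resulting dose-response curve. GI50 marks 50% less growth. TGI marks complete inhibition of growth.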
Key:
Test in all cases: NCI anticancer screen, dose series, 48 h; in the data active = GI50 below about 0.43 µM; inactive = the rest
[1] = tested on: M14 melanoma
[2] = tested on: ACHN renal
[3] = tested on: NCI-H522 lung
[4] = tested on: RPMI-8226 leukemia
[5] = tested on: SK-MEL-28 melanoma
[6] = tested on: OVCAR-3 ovarian
[7] = tested on: SF-295 CNS
[8] = tested on: MDA-MB-435
[9] = tested on: NCI-H23 lung
[10] = tested on: COLO 205 colon
[11] = tested on: DU-145 prostate
[12] = tested on: HCT-116 colon
[13] = tested on: HT29 colon
[14] = tested on: T-47D breast
[15] = tested on: LOX IMVI melanoma
[16] = tested on: CAKI-1 renal
[17] = tested on: HS 578T breast
[18] = tested on: NCI-H226 lung
[19] = tested on: A498 renal
[20] = tested on: HOP-62 NSCLC
[21] = tested on: SK-OV-3 ovarian
[22] = tested on: PC-3 prostate
[23] = tested on: UACC-257 melanoma
[24] = tested on: MOLT-4 leukemia
[25] = tested on: SF-539 CNS
[26] = tested on: HCT-15 colon
[27] = tested on: A549 NSCLC
[28] = tested on: MCF7 breast
[29] = tested on: SK-MEL-2 melanoma
[30] = tested on: OVCAR-4 ovarian
[31] = tested on: HCC-2998 colon
[32] = tested on: KM12 colon
[33] = tested on: UO-31 renal
[34] = tested on: OVCAR-5 ovarian
[35] = tested on: HL-60(TB) leukemia
[36] = tested on: CCRF-CEM leukemia
[37] = tested on: HOP-92 NSCLC
[38] = tested on: SK-MEL-5 melanoma
[39] = tested on: MALME-3M melanoma
[40] = tested on: SR leukemia
[41] = tested on: OVCAR-8 ovarian
[42] = tested on: EKVX NSCLC
[43] = tested on: SW-620 colon
[44] = tested on: NCI-H460 lung
[45] = tested on: K-562 leukemia
[46] = tested on: SF-268 CNS
[47] = tested on: SNB-19 CNS
[48] = tested on: SNB-75 CNS
[49] = tested on: U251 CNS
[50] = tested on: UACC-62 melanoma
[51] = tested on: IGROV1 ovarian
[52] = tested on: TK-10 renal
[53] = tested on: NCI/ADR-RES ovarian
[54] = tested on: SN12C renal
[55] = tested on: 786-0 renal
[56] = tested on: MDA-MB-231 breast

C/C(=C1\N=C(c2ccccc2)OC1=O)c1ccccc1
> 100 µM: TGI [1] | TGI [2] | TGI [3] | TGI [4] | TGI [5] | TGI [6] | TGI [7] | TGI [8] | TGI [9] | TGI [10] | TGI [11] | TGI [12] | TGI [13] | TGI [14] | TGI [15] | TGI [16] | TGI [17] | TGI [18] | TGI [19] | TGI [20] | TGI [21] | TGI [22] | TGI [23] | TGI [24] | TGI [25] | TGI [26] | TGI [27] | TGI [28] | TGI [29] | TGI [30] | TGI [31] | TGI [32] | TGI [33] | TGI [34] | TGI [35] | TGI [36] | TGI [37] | TGI [38] | TGI [39] | TGI [40] | TGI [41] | TGI [42] | TGI [43] | TGI [44] | TGI [45] | TGI [46] | TGI [47] | TGI [48] | TGI [49] | TGI [50] | TGI [51] | TGI [52]

COc1ccc(-n2cc(-c3ccc(OC)c(OC)c3)[nH]c2=O)cc1
inactive: GI50 [1] > 100 µM | GI50 [2] > 100 µM | GI50 [3] > 100 µM | GI50 [4] > 100 µM | GI50 [5] > 100 µM | GI50 [53] > 100 µM | GI50 [6] > 100 µM | GI50 [7] > 100 µM | GI50 [8] > 100 µM | GI50 [9] > 100 µM | GI50 [10] > 100 µM | GI50 [11] > 100 µM | GI50 [12] > 100 µM | GI50 [13] > 100 µM | GI50 [14] > 100 µM | GI50 [15] > 100 µM | GI50 [16] > 100 µM | GI50 [17] > 100 µM | GI50 [18] > 100 µM | GI50 [19] > 100 µM | GI50 [20] > 100 µM | GI50 [21] > 100 µM | GI50 [22] > 100 µM | GI50 [24] > 100 µM | GI50 [26] > 100 µM | GI50 [54] > 100 µM | GI50 [27] > 100 µM | GI50 [28] > 100 µM | GI50 [29] > 100 µM | GI50 [30] > 100 µM | GI50 [31] > 100 µM | GI50 [32] > 100 µM | GI50 [33] > 100 µM | GI50 [34] > 100 µM | GI50 [35] > 100 µM | GI50 [55] > 100 µM | GI50 [36] > 100 µM | GI50 [37] > 100 µM | GI50 [38] > 100 µM | GI50 [39] > 100 µM | GI50 [40] > 100 µM | GI50 [42] > 100 µM | GI50 [43] > 100 µM | GI50 [44] > 100 µM | GI50 [45] > 100 µM | GI50 [46] > 100 µM | GI50 [47] > 100 µM | GI50 [48] 12.1 µM | GI50 [56] > 100 µM | GI50 [49] > 100 µM | GI50 [50] > 100 µM | GI50 [51] > 100 µM | GI50 [52] > 100 µM
99.3 µM: TGI [48]
> 100 µM: TGI [1] | TGI [2] | TGI [3] | TGI [4] | TGI [5] | TGI [53] | TGI [6] | TGI [7] | TGI [8] | TGI [9] | TGI [10] | TGI [11] | TGI [12] | TGI [13] | TGI [14] | TGI [15] | TGI [16] | TGI [17] | TGI [18] | TGI [19] | TGI [20] | TGI [21] | TGI [22] | TGI [24] | TGI [26] | TGI [54] | TGI [27] | TGI [28] | TGI [29] | TGI [30] | TGI [31] | TGI [32] | TGI [33] | TGI [34] | TGI [35] | TGI [55] | TGI [36] | TGI [37] | TGI [38] | TGI [39] | TGI [40] | TGI [42] | TGI [43] | TGI [44] | TGI [45] | TGI [46] | TGI [47] | TGI [56] | TGI [49] | TGI [50] | TGI [51] | TGI [52]

COc1cccc(-c2cc(C(=O)Nc3ccc(/C=C/c4ccc(OC5CCN(C)CC5)cc4)cc3)ccc2OC)c1
45.6 µM: TGI [16]
5.13 µM: TGI [21]
4.59 µM: TGI [41]
5.15 µM: TGI [4]
4.98 µM: TGI [14]
inactive: GI50 [4] 2.18 µM | GI50 [14] 1.7 µM | GI50 [16] 10.6 µM | GI50 [18] 2.07 µM | GI50 [19] 1.39 µM | GI50 [21] 2.1 µM | GI50 [31] 1.83 µM | GI50 [36] 1.93 µM | GI50 [41] 1.96 µM
5.04 µM: TGI [18]
3.8 µM: TGI [19]
3.32 µM: TGI [31]
5.14 µM: TGI [36]
